Measurements from patent publication US4305950A, “Pharmaceutical agent containing amino derivatives of 2-methyl-5-(2-hydroxystyryl)-1,3,4-thiadiazole” (BASF Aktiengesellschaft, priority 1978, dated 1981).

Experiments:
cardiac beta-1-receptors = biological target: T1, cardiac beta-1-receptors (Felis catus, UniProt Q9TST6); assay: Beta-sympatholytic action: inhibition of isoproterenol-induced tachycardia in narcotized cats; assay type: in vivo; conditions: for Beta-sympatholytic action, R.A. (relative activity): Propranolol = 1.00, cats, intravenous; for factor by which doses blocking cardiac beta-1-receptors are lower than those of propranolol: compared to propranolol
T1 construct: in narcotized cats (weight 2-4 kg); from tissue; host or cells: heart of the living narcotized cat (in vivo)
T1 sequence (Q9TST6 whole entry): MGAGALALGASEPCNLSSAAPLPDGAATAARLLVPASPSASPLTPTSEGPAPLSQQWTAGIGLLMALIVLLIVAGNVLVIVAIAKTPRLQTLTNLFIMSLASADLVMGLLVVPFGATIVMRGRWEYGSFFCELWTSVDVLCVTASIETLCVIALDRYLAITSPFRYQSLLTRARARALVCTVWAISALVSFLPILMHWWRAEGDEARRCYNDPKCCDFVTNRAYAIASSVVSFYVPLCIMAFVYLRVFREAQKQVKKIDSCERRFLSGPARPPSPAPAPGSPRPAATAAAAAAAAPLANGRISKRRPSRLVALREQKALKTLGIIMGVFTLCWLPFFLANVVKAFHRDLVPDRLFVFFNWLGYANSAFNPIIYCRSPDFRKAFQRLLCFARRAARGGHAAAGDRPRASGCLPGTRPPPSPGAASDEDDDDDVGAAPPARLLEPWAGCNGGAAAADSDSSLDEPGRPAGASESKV
From the text: The following test methods were used:
Beta-sympatholytic agents inhibit such tachycardia.
^(1) Inhibition of isoproterenolinduced tachycardia in cats under
hexobarbital narcosis. Intravenous administration.
^(2) Dose (mg/kg) which inhibits the isoproterenolinduced tachycardia

female NMRI mice = assay type: in vivo; conditions: for Therapeutic range, relative: mouse, in vivo

Compound | Beta-sympatholytic action, R.A. (relative activity) (cardiac beta-1-receptors) | factor by which doses blocking cardiac beta-1-receptors are lower than those of propranolol (cardiac beta-1-receptors) | factor by which the therapeutic range is increased, compared to propranolol (female NMRI mice) | Therapeutic range, relative (female NMRI mice) | ED50 (cardiac beta-1-receptors; cat, cats under hexobarbital narcosis, intravenous administration, read-out: Beta-sympatholytic action, ED 50% (dose which inhibits the isoproterenol-induced tachycardia by 50%)) [µg/kg]
Cc1nnc(C=Cc2ccccc2OCC(O)CNC2CC2)s1 (stereo not shown) [Example 2, 2-Methyl-5-[2-(2-hydroxy-3-cyclopropylamino-propoxy)-styryl]-1,3,4-thiadiazole] | 11.75 | 12 | 7.6 | 7.55 | –
C#CC(C)NCC(O)COc1ccccc1C=Cc1nnc(C)s1 (stereo not shown) [Example 7, 2-Methyl-5-[2-(2-hydroxy-3-(but-1-ynyl-3-amino)-propoxy)-styryl]-1,3,4-thiadiazole] | 12.70 | – | 30.7 | 30.68 | –
Cc1nnc(C=Cc2ccccc2OCC(O)CNC(C)(C)C)s1 (stereo not shown) [Example 3, 2-Methyl-5-[2-(2-hydroxy-3-tert.-butylamino-propoxy)-styryl]-1,3,4-thiadiazole] | 25.22 | 25 | – | 13.73 | 5.59
Cc1nnc(C=Cc2ccccc2OCC(O)CNC(C)C)s1 (stereo not shown) [Example 1, 2-Methyl-5-[2-(2-hydroxy-3-isopropylamino-propoxy)-styryl]-1,3,4-thiadiazol] | 14.10 | – | – | 10.84 | –
